Measured values published in ChEMBL document CHEMBL1201862, “PubChem BioAssay data set” (2004).
Calls of active or inactive are those of the source.

Columns and labels:
[1] = NIH-3T3 fibroblast cytotoxicity, dose response, cytotoxicity control, cell-based, fluorescence, Alamar Blue, secondary assay (AID 2327); type: functional;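 note: NIH-3T3 mouse fibroblasts cultured with fluconazole at 8 µg/mL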
[2] = C. albicans growth with fluconazole, confirmation, fluorescence, retest (AID 2467); type: functional, cell-based
[3] = HEp-2 cell cytotoxicity, dose response, cytotoxicity control for RSV inhibitor project, HTS (AID 2410); type: functional; conditions: human respiratory syncytial virus
Protein RecA = target: T1, Protein RecA (Mycobacterium tuberculosis, UniProt P9WHJ3); experiment: Fluorescence Cell-Free Homogeneous Dose Retest to Identify Inhibitors of RecA-Intein Splicing Activity. [Related pubchem assays (depositor defined):AID2097, AID2223, AID489010, AID492950]; type: functional
T1 sequence (P9WHJ3 whole entry): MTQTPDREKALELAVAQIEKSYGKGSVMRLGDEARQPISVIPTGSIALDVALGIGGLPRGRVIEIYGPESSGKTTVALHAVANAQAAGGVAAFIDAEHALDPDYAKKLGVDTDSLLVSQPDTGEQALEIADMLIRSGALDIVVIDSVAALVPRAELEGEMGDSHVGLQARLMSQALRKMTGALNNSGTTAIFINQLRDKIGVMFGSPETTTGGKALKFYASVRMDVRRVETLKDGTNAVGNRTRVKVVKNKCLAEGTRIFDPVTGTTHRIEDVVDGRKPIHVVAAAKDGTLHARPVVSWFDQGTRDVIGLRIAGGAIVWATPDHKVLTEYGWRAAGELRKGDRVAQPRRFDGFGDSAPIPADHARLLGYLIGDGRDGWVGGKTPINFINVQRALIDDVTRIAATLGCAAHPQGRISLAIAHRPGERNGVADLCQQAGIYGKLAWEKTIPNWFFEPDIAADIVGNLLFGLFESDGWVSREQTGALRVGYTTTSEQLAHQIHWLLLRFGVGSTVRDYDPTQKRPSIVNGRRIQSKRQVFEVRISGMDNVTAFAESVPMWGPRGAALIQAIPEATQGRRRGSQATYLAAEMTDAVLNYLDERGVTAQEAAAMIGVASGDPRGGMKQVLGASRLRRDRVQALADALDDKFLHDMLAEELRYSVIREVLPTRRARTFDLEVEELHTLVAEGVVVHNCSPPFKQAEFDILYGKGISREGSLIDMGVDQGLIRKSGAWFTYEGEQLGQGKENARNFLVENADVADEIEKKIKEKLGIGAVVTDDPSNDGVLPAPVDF

[4] = target: T2, Replicative DNA helicase DnaB (Mycobacterium tuberculosis, UniProt P9WMR3); experiment: DnaB intein splicing inhibitors, dose response, biochemical, cell-free fluorescence (AID 449749); type: functional
T2 sequence (P9WMR3 whole entry): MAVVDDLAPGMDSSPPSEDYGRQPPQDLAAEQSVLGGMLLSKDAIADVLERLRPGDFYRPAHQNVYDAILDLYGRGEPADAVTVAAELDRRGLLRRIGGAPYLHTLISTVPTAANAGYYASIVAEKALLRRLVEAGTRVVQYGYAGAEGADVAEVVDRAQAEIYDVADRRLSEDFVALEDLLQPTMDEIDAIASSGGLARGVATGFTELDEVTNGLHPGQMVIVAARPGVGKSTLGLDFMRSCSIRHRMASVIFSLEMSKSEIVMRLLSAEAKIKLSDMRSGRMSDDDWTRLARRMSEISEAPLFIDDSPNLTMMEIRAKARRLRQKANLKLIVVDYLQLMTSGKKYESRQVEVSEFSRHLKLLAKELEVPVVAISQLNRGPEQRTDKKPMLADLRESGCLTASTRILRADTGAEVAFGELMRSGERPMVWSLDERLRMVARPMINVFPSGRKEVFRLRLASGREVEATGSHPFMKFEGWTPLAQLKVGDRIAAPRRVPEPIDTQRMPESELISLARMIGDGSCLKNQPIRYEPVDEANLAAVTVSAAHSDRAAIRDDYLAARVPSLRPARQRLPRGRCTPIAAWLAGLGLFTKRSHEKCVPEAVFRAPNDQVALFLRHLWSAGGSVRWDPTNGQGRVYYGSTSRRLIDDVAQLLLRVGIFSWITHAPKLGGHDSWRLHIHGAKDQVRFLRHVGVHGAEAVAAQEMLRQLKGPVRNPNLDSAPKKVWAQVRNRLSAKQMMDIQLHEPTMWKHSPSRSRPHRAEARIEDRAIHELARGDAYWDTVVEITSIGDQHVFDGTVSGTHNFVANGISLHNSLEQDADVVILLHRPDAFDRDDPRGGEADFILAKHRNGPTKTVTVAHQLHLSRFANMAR

[5] = target: T3, Calpain-2 catalytic subunit (Sus scrofa, UniProt P43367); experiment: pig calpain II inhibitor potency, dose response, biochemical, fluorogenic peptide substrate (AID 1420); type: functional
T3 sequence (P43367 whole entry): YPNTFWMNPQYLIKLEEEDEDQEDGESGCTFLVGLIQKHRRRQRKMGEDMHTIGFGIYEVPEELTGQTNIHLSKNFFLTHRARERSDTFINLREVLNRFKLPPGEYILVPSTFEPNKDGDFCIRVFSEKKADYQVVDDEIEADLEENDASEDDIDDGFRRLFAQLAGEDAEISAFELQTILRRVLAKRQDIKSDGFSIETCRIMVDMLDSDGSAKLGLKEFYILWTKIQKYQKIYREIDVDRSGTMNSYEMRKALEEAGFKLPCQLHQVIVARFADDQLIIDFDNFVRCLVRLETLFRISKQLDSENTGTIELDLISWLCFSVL

[6] = target: T4, Rac GTPase-activating protein 1 (Homo sapiens, UniProt Q9H0H5); experiment: MgcRacGAP GTPase-activating activity inhibitors, confirmation, biochemical, ADP Hunter fluorescence, primary and confirmatory (AID 624330); type: functional
T4 sequence (Q9H0H5 whole entry): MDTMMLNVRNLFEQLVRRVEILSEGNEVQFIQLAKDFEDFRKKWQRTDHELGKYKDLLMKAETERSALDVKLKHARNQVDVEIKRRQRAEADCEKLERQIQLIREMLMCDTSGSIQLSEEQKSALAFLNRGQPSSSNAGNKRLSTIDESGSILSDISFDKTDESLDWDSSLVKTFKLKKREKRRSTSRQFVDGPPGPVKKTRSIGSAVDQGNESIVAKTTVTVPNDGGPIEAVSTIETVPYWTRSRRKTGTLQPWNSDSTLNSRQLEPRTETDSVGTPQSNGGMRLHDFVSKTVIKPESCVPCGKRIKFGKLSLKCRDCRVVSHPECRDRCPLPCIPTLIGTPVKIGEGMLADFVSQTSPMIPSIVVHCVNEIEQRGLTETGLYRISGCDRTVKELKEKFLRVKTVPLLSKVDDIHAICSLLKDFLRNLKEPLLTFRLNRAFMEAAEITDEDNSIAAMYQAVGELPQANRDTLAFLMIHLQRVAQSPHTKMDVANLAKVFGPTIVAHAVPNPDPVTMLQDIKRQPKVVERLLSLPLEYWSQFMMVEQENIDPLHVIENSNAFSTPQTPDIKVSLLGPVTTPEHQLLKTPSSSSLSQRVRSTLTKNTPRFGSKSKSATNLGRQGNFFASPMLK

[7] = target: T5, Heat shock factor protein 1 (Mus musculus, UniProt P38532); experiment: inhibition of MG132-induced HSE-luciferase signal, confirmation, cell-based, NIH3T3, luminescence, dose retest (AID 2382); type: functional;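 note: NIH3T3 fibroblasts with HSF1-driven luciferase reporter stressed by proteasome inhibitor MG132; luminescence from HSF1-driven luciferase expression after 8 hours of MG132 stress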
T5 sequence (P38532 whole entry): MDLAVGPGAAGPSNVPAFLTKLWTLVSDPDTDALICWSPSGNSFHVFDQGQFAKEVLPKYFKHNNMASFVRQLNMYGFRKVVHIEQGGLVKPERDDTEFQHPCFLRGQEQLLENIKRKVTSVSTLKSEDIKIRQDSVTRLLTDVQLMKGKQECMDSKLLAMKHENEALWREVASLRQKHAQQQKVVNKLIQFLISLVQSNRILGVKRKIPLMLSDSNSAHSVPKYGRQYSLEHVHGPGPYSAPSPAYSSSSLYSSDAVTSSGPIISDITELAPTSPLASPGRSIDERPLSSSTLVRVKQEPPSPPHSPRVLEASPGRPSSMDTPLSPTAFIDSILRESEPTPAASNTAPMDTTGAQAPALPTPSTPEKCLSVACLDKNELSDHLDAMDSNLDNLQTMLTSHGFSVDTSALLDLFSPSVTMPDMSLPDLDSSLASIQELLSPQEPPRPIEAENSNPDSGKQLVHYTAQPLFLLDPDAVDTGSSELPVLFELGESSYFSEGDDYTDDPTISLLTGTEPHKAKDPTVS

[8] = Luminescence Cell-Based Dose Retest to Confirm Inhibitors of Cancer Stem Cells. [Related pubchem assays (depositor defined):AID2717, AID2721]; type: functional; conditions: Homo sapiens

For `COc1ccccc1NC(=O)Cn1cnc2c(cnn2-c2ccccc2)c1=O`, the EC50 [1] was > 150 µM (inactive) and the EC50 [2] was > 38 µM (not active).

In the case of `CCOc1ccc2nc(SCC(=O)N3CCN(C(=O)c4ccco4)CC3)sc2c1`, the CC50 [3] is reported as 22.8 µM (active).

In the case of `Cc1ccc(/C=C/C(=O)c2c(C)cc(C)nc2O)cc1`, the CC50 [3] is reported as 17.7 µM (active).

With `Cc1ccc(N(CCCCN2C(=O)c3ccccc3C2=O)C(=O)c2cccs2)cc1` the CC50 [3] was 38.9 µM (active).

With `Cc1nc2ccccc2c2c1C(=O)N(c1cccc(C(=O)O)c1)C2=O` the EC50 (Protein RecA) was 17 µM (active) and the AC50 [4] was 37 µM (active).

For `O=C1CC2C(=O)NCCN2C(NC(=O)c2ccc(Cl)cc2)=N1` (stereo not drawn), the IC50 [5] was 0.931 µM (not active).

For `Cc1cc(C)c2c(c1)-c1c(ssc1=S)C(C)(C)N2C(=O)CSc1nncn1C`, the EC50 (Protein RecA) was 8.17 µM (active) and the AC50 [4] was 5.32 µM (active).

With `N#Cc1cc2c(nc1SCc1nc3ccccc3[nH]1)CCC2` the CC50 [3] was 38 µM (active).

For `CC(NC(=O)c1ccccc1)c1ccc(F)cc1` (stereo not drawn), the IC50 [5] was > 50 µM (not active).

For `CCOC(=O)N1CCN(CC(=O)Nc2sccc2C#N)CC1`, the IC50 [5] was 33.6 µM (not active).

In the case of `CCCCC(=O)Nc1ccc(C(=O)c2ccccc2)cc1`, the IC50 [5] is reported as > 50 µM (not active).

For `Cc1ccc(C2CC(C(F)F)n3ncc(C(=O)Nc4cnn(Cc5ccccc5C)c4)c3N2)cc1` (stereo not drawn), the CC50 [3] was 19.4 µM (active).

In the case of `CCN(c1ccc(OCC(=O)OCC(=O)Nc2ccc(F)c(F)c2F)cc1)S(=O)(=O)c1ccccc1`, the IC50 [5] is reported as 3.96 µM (not active).

For `COc1ccccc1C1CC(c2ccco2)=NN1S(C)(=O)=O` (stereo not drawn), the EC50 [1] was > 160 µM (inconclusive) and the EC50 [2] was > 38 µM (not active).

For `CC(C)CS(=O)(=O)C1=NSC2=NC(=O)/C(=C\c3ccc(OC(=O)c4ccco4)cc3)C(=N)N21`, the EC50 (Protein RecA) was 13.8 µM (active) and the AC50 [4] was > 380 µM (inactive).

With `CC(C)c1n[nH]c2c1C1(CCN(Cc3ccccc3)CC1)C(C#N)=C(N)O2` the EC50 (Protein RecA) was 1.16 µM (active) and the AC50 [4] was 53.5 µM (active).

With `O=C(Nc1ccc(F)c(Cl)c1)NC1CC1` the EC50 [1] was > 150 µM (inactive) and the EC50 [2] was 2.1 µM (active).

For `COc1ccc(/C(=C/Nc2cccc(Br)c2)C(C)=O)cc1OC`, the IC50 [5] was 9 µM (not active).

In the case of `C=CCn1c(CCCNC(=O)c2ccccc2OC)nc2ccccc21`, the IC50 [5] is reported as 13.2 µM (not active).

For `Cc1ccc(Cl)cc1N1CCN(C(=O)CCCn2c(=O)c3cccn3c3cccnc32)CC1`, the CC50 [3] was 12.1 µM (active).

For `CCCCNc1nnc(SCC(=O)N2CCN(S(=O)(=O)c3ccc4ccccc4c3)CC2)s1`, the CC50 [3] was > 50 µM (active).

With `CC(=O)c1cccc(NC(=S)NC(=O)c2ccc(C)cc2)c1` the EC50 [1] was > 160 µM (inactive) and the EC50 [2] was > 38 µM (not active).

In the case of `COc1ccc(CN2C(=O)/C(=C\NNC(=O)c3cccnc3)c3ccccc3C2=O)cc1`, the EC50 [1] is reported as 27.4 µM (active), the IC50 [6] is reported as 137 µM (active) and the EC50 [2] is reported as 1.32 µM (active).

With `Cc1cccc(N2CCN(C(=O)c3ccc4c(c3)CCN4S(C)(=O)=O)CC2)c1C` the CC50 [3] was 38.3 µM (active).

With `CC(Oc1ccc(F)cc1)C(=O)Oc1ccc(N(C)S(=O)(=O)c2ccccc2)cc1` (stereo not drawn) the EC50 (Protein RecA) was 58.5 µM (active) and the AC50 [4] was 0.725 µM (active).

For `CCOC(=O)CN(C(=O)CSc1n[nH]c2c3cc(F)ccc3nc-2n1)c1ccccc1`, the IC50 [5] was 5.94 µM (not active).

For `CCc1n[nH]c2c1C1(CCN(C(=O)c3ccccc3)CC1)C(C#N)=C(N)O2`, the EC50 (Protein RecA) was 4.3 µM (active) and the AC50 [4] was 24.6 µM (active).

With `CC1=C(C(=O)OCc2ccccc2)C(c2cccs2)N2C(=O)CCSC2=N1` (stereo not drawn) the IC50 [5] was 8.99 µM (not active).

For `Cc1cccc(C(=O)c2cnc3ccccc3c2-c2ccccc2)c1`, the EC50 (Protein RecA) was 22.8 µM (active) and the AC50 [4] was 4.79 µM (active).

With `CCOC(=O)C1CCN(Cc2cc(C(C)C)c(O)c(C(C)C)c2)CC1` the EC50 (Protein RecA) was > 380 µM (inactive).

In the case of `CCOC(=O)c1ccc(-n2[nH]c(-c3ccccc3)cc2=O)cc1`, the EC50 [7] is reported as > 195 µM (not active), the EC50 (Protein RecA) is reported as 2.25 µM (active) and the AC50 [8] is reported as 5.35 µM (active). The AC50 [4] was 3.43 µM (active).

For `CCOC(=O)c1cnc(N)nc1C(F)(F)F`, the EC50 (Protein RecA) was > 380 µM (inactive) and the AC50 [4] was > 380 µM (inactive).

With `N#C/C(=C(/O)CN1C(=O)c2ccccc2C1=O)c1nc2ccccc2[nH]1` the IC50 [5] was 2.28 µM (not active).

For `COc1ccccc1N1CCN(/N=C/c2cc([N+](=O)[O-])ccc2Cl)CC1`, the CC50 [3] was 29 µM (active).

For `N#Cc1c(-c2ccc(Cl)cc2)cc(-c2ccccc2)nc1SCC(=O)O`, the EC50 [1] was 134 µM (active) and the EC50 [2] was 1.57 µM (active).
